The values that follow come from patent publication US20050089495A1, “Transdermal transport of compounds” (priority 2001, published 2005).

Counter-ions that a name gives are not always drawn.

For series [1] the following is noted: females using the patches; cited from earlier work.
The nature of series [2]: Acute transdermal penetration of 3H-Estradiol and 3H-Estradiol Phosphate in the hairless rat model. In kind it is in vivo, female albino hairless rats. The settings on record: 24-hour period.
Series [3] in a line: Transdermal delivery of estradiol and estradiol phosphate in the hairless rat model; total estrogens RIA in plasma.
Series [4] is described as follows: Transdermal delivery of testosterone and testosterone phosphate in the hairless rat model; total testosterone in plasma. To be noted: topical carrier cream; for concentration of testosterone in blood after application: 1 μg.
For another series, the system named is rats. The series is described as follows: Efficacy of atropine phosphate compared to atropine sulfate: heart rate after intravenous administration. In kind it is in vivo. The settings on record: for heart rate after administration: IV 2 mg/kg in phosphate buffer, baseline approx. 350 bpm. As for the experimental part: The efficacy of atropine phosphate when compared to atropine sulfate was investigated in this example.
Atropine sulfate and atropine phosphate formulated in phosphate buffer and given intravenously (IV) each to two rats at 2 mg/kg resulted similar increases in heart rates.
For example, the baseline heart rate of a rat was approx. 350 bpm and increased to 450 bpm within 15 minutes after administration of atropine (either atropine phosphate or atropine sulfate). Approximately two hours later, normal heart rates were restored. This is regarded as a significant change in pulse rate.

With `C[C@]12CC[C@@H]3c4ccc(O)cc4CC[C@H]3[C@@H]1CC[C@@H]2O` [E, Estradiol], the “females reporting skin irritation” value in series [1] is on record as “up to 17%”.

In the case of `C[C@]12CC[C@@H]3c4ccc(O)cc4CC[C@H]3[C@@H]1CC[C@@H]2OP(=O)(O)O` [EP, Estradiol Phosphate], in series [2], the “levels in the epidermis and dermis” value is “Higher levels”. Besides, the “plasma concentration of the hormone compared to the E treatment” value in series [3] (equivalent doses applied, 24-hour period) was “at least twice”. In addition, the “concentration of estradiol in blood versus estradiol application” value in series [3] (over a 24-hour period, P<0.01 at 2, 4 and 16 hours) was “consistently higher”.

For `C[C@]12CC[C@H]3[C@@H](CCC4=CC(=O)CC[C@@]43C)[C@@H]1CC[C@@H]2O` [T, Testosterone], in series [4], the “concentration of testosterone in blood after application” value is given as “increased”. For the same molecule, the “maximum concentration of total testosterone in plasma (mean±SD)” value in series [4] (1 μg on about 4 cm^2 dorsal skin, baseline t=0 subtracted) turned out to be 30.90 ± 11.00 pg/mL.

On to `CN1[C@@H]2CC[C@H]1CC(OC(=O)C(CO)c1ccccc1)C2.O=P(O)(O)O` (stereo partly drawn) [atropine phosphate], for which, in the series with rats (IV 2 mg/kg), the “effect on pulse rate” value is given as “effective to increase pulse rate” and the “time until normal heart rates were restored” value is “Approximately two”. Also, the “heart rate after administration” value in the series with rats amounted to 450 bpm.

Take `CN1[C@@H]2CC[C@H]1C[C@@H](OC(=O)C(CO)c1ccccc1)C2` (stereo partly drawn) [atropine sulfate, reference compound]: the “time until normal heart rates were restored” value in the series with rats (IV 2 mg/kg) is listed as “Approximately two”. Further, in the series on rats, the “heart rate after administration” value is on record as 450 bpm.

As to Testosterone Phosphate [TP], the “concentration of testosterone in blood after application” value in series [4] is recorded as “increased”.
